Measured values published in patent publication US20230117470A1, “SUBSTITUTED PYRAZOLE COMPOUNDS AS TOLL RECEPTOR INHIBITORS” (BRISTOL-MYERS SQUIBB COMPANY, priority 2019, published 2023).

Columns and labels:
Type in all cases: cell-based
human TLR9 = biological target: T1, human TLR9 (Homo sapiens, UniProt Q9NR96); assay: TLR9 inhibition reporter assay (HEK-Blue cells, SEAP reporter, ODN2006 stimulation); settings: HEK-Blue cells overexpressing human TLR9, SEAP reporter, ODN2006 5 nM
T1 construct: host or cells: HEK-Blue cells
T1 sequence (Q9NR96 26-1032): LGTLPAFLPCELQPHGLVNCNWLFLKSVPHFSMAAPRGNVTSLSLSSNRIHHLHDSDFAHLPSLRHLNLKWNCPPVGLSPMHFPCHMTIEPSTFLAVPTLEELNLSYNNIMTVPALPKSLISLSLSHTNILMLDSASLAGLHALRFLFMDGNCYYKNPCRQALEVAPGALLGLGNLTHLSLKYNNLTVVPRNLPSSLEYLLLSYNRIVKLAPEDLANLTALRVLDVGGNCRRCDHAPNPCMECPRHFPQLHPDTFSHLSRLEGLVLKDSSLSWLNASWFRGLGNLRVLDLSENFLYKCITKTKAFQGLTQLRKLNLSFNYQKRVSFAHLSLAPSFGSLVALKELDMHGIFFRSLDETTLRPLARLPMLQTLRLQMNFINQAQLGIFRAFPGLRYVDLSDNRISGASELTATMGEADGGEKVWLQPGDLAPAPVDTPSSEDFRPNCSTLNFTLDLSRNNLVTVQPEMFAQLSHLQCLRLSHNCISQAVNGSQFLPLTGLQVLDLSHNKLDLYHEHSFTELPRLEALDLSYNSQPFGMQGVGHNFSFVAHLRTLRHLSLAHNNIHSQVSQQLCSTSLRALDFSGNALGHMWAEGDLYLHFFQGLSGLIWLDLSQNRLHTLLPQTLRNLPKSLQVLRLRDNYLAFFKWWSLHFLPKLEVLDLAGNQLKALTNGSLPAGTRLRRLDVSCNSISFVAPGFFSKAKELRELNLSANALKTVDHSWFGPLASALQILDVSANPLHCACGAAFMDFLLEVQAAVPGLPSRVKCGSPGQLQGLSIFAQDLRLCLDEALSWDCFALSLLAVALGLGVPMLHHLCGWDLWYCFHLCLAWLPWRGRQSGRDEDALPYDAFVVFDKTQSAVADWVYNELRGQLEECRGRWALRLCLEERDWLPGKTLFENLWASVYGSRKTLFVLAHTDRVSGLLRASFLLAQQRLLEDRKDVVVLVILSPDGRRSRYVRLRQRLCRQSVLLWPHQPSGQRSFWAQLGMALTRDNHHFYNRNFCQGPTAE
Method: (§1) TLR7/8/9 Inhibition Reporter Assays
(§2) HEK-Blue™-cells (Invivogen) overexpressing human TLR7, TLR8 or TLR9 receptors were used for screening inhibitors of these receptors using an inducible SEAP (secreted embryonic alkaline phosphatase) reporter gene under the control of the IFN-β minimal promoter fused to five NF-κB and AP-1-binding sites. Briefly, cells are seeded into Greiner 384 well plates (15000 cells per well for TLR7, 20,000 for TLR8 and 25,000 for TLR9) and then treated with test compounds in DMSO to yield a final dose response concentration range of 0.05 nM-50 μM. After a 30 minute compound pre-treatment at room temperature, the cells are then stimulated with a TLR7 ligand (gardiquimod at a final concentration of 7.5 μM), TLR8 ligand (R848 at a final concentration of 15.9 μM) or TLR9 ligand (ODN2006 at a final concentration of 5 nM) to activate NF-κB and AP-1 which induce the production of SLA After a 22 hour incubation at 37° C., […], SEAP levels are determined with the addition of HEK-Blue™ Detection reagent (Invivogen), a cell culture medium that allows for detection of SLAP, according to manufacturer's specifications. The percent inhibition is determined as the % reduction in the HEK-Blue signal present in wells treated with agonist plus DMSO alone compared to wells treated with a known inhibitor.

human TLR7 = biological target: T2, human TLR7 (Homo sapiens, UniProt Q9NYK1); assay: TLR7 inhibition reporter assay (HEK-Blue cells, SEAP reporter, gardiquimod stimulation); settings: HEK-Blue cells overexpressing human TLR7, SEAP reporter, gardiquimod 7.5 μM
T2 construct: host or cells: HEK-Blue cells
T2 sequence (Q9NYK1 27-1049): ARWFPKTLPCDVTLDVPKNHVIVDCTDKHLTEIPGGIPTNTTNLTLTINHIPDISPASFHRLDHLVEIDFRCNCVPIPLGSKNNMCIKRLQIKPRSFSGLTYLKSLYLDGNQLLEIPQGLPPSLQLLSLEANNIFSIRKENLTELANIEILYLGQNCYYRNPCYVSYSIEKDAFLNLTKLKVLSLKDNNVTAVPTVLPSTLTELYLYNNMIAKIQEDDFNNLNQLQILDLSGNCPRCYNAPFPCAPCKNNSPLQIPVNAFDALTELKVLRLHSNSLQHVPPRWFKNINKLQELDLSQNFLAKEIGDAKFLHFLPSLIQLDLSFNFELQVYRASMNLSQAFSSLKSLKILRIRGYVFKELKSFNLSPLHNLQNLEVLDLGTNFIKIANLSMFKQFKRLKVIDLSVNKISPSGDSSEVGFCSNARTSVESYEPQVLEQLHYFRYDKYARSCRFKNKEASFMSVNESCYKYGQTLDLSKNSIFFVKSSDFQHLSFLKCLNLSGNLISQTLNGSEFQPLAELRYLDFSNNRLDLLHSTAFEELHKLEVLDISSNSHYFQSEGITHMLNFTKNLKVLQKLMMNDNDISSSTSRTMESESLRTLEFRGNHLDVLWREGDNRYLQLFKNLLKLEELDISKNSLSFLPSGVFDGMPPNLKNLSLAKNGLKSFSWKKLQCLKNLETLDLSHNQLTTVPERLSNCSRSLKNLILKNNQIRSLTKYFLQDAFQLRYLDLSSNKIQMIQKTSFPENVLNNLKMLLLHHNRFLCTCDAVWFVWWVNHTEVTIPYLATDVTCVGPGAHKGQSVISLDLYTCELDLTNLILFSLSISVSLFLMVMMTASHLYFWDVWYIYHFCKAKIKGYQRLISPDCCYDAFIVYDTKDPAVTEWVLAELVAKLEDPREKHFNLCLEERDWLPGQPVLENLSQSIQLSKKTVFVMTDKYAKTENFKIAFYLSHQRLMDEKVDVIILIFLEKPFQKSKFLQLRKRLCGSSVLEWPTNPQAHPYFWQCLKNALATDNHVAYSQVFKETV
Method: as §1, §2

human TLR8 = biological target: T3, human TLR8 (Homo sapiens, UniProt Q9NR97); assay: TLR8 inhibition reporter assay (HEK-Blue cells, SEAP reporter, R848 stimulation); settings: HEK-Blue cells overexpressing human TLR8, SEAP reporter, R848 15.9 μM
T3 construct: host or cells: HEK-Blue cells
T3 sequence (Q9NR97 27-1041): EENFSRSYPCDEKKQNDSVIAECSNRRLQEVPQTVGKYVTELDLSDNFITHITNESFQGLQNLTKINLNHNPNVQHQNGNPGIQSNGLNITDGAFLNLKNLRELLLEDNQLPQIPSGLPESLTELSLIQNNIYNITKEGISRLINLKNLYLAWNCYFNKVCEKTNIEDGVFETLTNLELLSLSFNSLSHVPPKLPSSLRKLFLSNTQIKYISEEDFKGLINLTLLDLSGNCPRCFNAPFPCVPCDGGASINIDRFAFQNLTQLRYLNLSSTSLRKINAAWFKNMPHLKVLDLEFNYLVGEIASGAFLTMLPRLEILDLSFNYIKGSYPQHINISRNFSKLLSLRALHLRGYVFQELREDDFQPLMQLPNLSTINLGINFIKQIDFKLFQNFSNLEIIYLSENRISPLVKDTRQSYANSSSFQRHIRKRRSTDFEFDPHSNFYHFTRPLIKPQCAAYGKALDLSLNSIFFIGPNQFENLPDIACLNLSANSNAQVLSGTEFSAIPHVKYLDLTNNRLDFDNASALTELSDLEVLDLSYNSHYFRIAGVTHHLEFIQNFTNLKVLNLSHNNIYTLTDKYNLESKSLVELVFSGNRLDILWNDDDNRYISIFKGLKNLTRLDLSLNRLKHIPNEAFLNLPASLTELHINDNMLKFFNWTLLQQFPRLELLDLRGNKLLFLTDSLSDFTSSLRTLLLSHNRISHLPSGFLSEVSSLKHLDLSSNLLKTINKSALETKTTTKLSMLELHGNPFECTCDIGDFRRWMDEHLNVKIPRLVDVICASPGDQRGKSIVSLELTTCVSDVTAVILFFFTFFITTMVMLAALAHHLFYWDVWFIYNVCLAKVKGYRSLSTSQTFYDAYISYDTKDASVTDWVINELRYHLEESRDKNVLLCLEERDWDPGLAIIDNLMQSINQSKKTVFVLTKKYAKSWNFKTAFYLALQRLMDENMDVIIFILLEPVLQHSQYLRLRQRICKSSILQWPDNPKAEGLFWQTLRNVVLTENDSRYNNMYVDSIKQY
Method: as §1, §2

Structure (SMILES)	IC50 (human TLR9) [nM]	IC50 (human TLR7) [nM]	IC50 (human TLR8) [nM]
Cc1cc(-c2[nH]nc(C(=O)NC3CCN(CC4CCOCC4)CC3)c2C(C)C)cn2ncnc12 [Example 77]	3270	2.03	21.5
Cc1cc(-c2[nH]nc(C(=O)NC3CCN(C(C)C)CC3)c2C(C)C)ccn1 [Example 38]	2280	7.93	4.43
Cc1noc(C)c1CN1CCC(NC(=O)c2n[nH]c(-c3cc(C)c4ncnn4c3)c2C(C)C)CC1 [Example 78]	2870	0.59	1.64
Cc1cc(-c2[nH]nc(C(=O)NC3CCCNC3)c2C(C)C)cn2ncnc12 (centres unmarked) [Example 67]	2250	12.6	12.9
Cc1cc(-c2[nH]nc(C(=O)N[C@H]3CC[C@@H](NCC(C)(C)C)CC3)c2C(C)C)cn2ncnc12 [Example 89]	4100	1.48	18.9
Cc1cc(-c2[nH]nc(C(=O)NC3CCN(C(C)C)CC3)c2C(C)C)cc(C)n1 [Example 36]	25200	1300	1540
COc1cc(-c2[nH]nc(C(=O)NC3CCN(C)CC3)c2C(C)C)cn2ncnc12 [Example 11]	18500	3.78	9.31
COc1ncc(CN[C@H]2CC[C@@H](NC(=O)c3n[nH]c(-c4cc(C)c5ncnn5c4)c3C(C)C)CC2)cn1 [Example 96]	7770	1.53	0.98
Cc1cc(-c2[nH]nc(C(=O)NCC3CCCCN3)c2C(C)C)cn2ncnc12 (centres unmarked) [Example 56]	–	4.36	3.43

More lines, now with the values ahead:

IC50 (human TLR9) [nM]	IC50 (human TLR7) [nM]	IC50 (human TLR8) [nM]	Structure (SMILES)
14300	2.25	90.9	Cc1cc(-c2[nH]nc(C(=O)N[C@H]3CC[C@H](NCC(C)(C)C)CC3)c2C(C)C)cn2ncnc12 [Example 106]
6970	2.08	2.7	Cc1cc(-c2[nH]nc(C(=O)NCC3CN(C4COC4)CCO3)c2C(C)C)cn2ncnc12 (centres unmarked) [Example 142]
> 50000	56.9	18.2	COc1cc(-c2[nH]nc(-c3cnc(C4CCN(CC5CCC5)CC4)cn3)c2C(C)C)cn2ncnc12 [Example 377]
21500	6.66	2.33	CNC(=O)CN1CCC(NC(=O)c2n[nH]c(-c3cc(OC)c4ncnn4c3)c2CC(F)(F)F)CC1 [Example 205, 5-(8-methoxy-[1,2,4]triazolo[1,5-a]pyridin-6-yl)-N-(1-(2-(methylamino)-2-oxoethyl)piperidin-4-yl)-4-(2,2,2-trifluoroethyl)-1H-pyrazole-3-carboxamide]
> 50000	18.8	1.7	CCN(C)C1CCC(c2n[nH]c(-c3cc(C)c4ncnn4c3)c2C(C)C)CC1 (single isomer, unassigned) [Example 283]
16100	1.23	1.28	Cc1cc(-c2[nH]nc(C(=O)NCC3CN(C)CCO3)c2C(C)C)cn2ncnc12 (centres unmarked) [Example 134]
29200	13.3	0.54	Cc1cc(-c2[nH]nc(C3CCC(N4CCN(C)CC4)CC3)c2C(C)C)cn2ncnc12 (single isomer, unassigned) [Example 287]
18100	4.74	4.48	COCCN1CCc2cc(-c3n[nH]c(-c4cc(C)c5ncnn5c4)c3C(C)C)ccc2C1 [Example 263, 6-(4-isopropyl-5-(8-methyl-[1,2,4]triazolo[1,5-a]pyridin-6-yl)-1H-pyrazol-3-yl)-2-(2-methoxyethyl)-1,2,3,4-tetrahydroisoquinoline]
> 50000	47.4	168	Cc1cc(-c2[nH]nc(-c3ccc(N4CCN(CC(C)(C)C)CC4)cc3)c2C(C)C)cn2ncnc12 [Example 408]
12600	2.27	0.64	Cc1cc(-c2[nH]nc(C3CCN(C)CC3)c2C(C)C)cn2ncnc12 [Example 206, 6-(4-isopropyl-3-(1-methylpiperidin-4-yl)-1H-pyrazol-5-yl)-8-methyl-[1,2,4]triazolo[1,5-a]pyridine]
20900	13.7	31.6	CCC(C)N1CCC(NC(=O)c2n[nH]c(-c3cc(C)c4ncnn4c3)c2C(C)C)CC1 (centres unmarked) [Example 152]
